Patent US20250281497A1, “FUSED AMINO PYRIMIDINE COMPOUNDS FOR TREATMENT OF SEIZURE DISORDERS” (Ovid Therapeutics Inc., priority 2024, published 2025)

Tests used:
KA induced SE [1] = assay: Kainic acid (KA) induced SE, EEG recording, pretreatment; assay type: in vivo, mice; settings: mice pretreated with vehicle; DZ 10 mg/kg IP 2h after KA; pre 4.2±2.4×10^−6
From the text: This model was chosen due to the similarities with patients undergoing SE, as KA-induced seizures become refractory to benzodiazepines (BDZs) within minutes (Betjemann and Lowenstein, Lancet Neurol 14, 615-624 (2015); Crawshaw and Cock, (2020a) [Seizure: Eur. J. Epilep. 75 (2020) 145-152] Seizure 80, 282; Lee et at, 2022, supra; Reddy and Kuruba, Int J Mol Sci 14, 18284-18318 (2013)).
(§1) EEG recordings and analysis. WT C57Bl/6J adult male mice (12 weeks) were anesthetized with isofluorane and implanted with EEG/EMG electrodes and allowed to recover for 7 days prior to experimentation. […] 2h following KA administration mice were injected with a saturating concentration of diazepam (DZ) 10 mg/kg (IP) and recordings were extended for a further 60 min. […] LabChart 8 software was used for data analysis. Epileptiform activity was identified by changes in the amplitude of electrographic activity characterized by consistent changes in the power of the Fast Fourier transform (FFT) of the EEG and abnormal activity characterized by periods of rhythmic spiking lasting longer than 30s (Moore et al., 2017, supra; Silayeva et al., 2015, supra; Sivakumaran et al., J. Neurosci. 35, 8291-8296 (2015)).
To provide quantitative insights on the effects of KA, raw EEG recordings were subject to Fast-Fourier transformation (8K FFT size, Hann (cosine-bell), 87.50% window overlap) for frequencies between 0-100 Hz 2h after KA injection (Lee et at, 2022, supra).
30 or 60 min later mice were injected with KA (20 mg/kg) and 2h later with DZ as detailed above.

KA induced SE [2] = assay: KA induced ongoing SE, EEG recording, treatment 2h after KA; assay type: in vivo, mice
Description: as §1
To evaluate the potential of KCC2 activators to terminate ongoing SE, the KA model described above was employed. Mice were injected with KA (20 mg/Kg; IP). […] Spectral data were then subjected to FFT and the total EEG power between 1-100 Hz of the 2h following KA treatment (pre-drug) and 30 min following their injection (post-drug) were compared (FIG. 6B). In mice treated with DZ alone variable effects were observed, from large increases to modest reductions in EEG power, but these effects were not significant (FIG. 6C; pre=1.1±0.2×10^−6, post=4.4±7.4×10^−7 μV^2, p=0.214, n=13-14 mice). […] The latency of the treatments to modify EEG power was examined by measuring the time taken for this parameter to be reduced to 50% (FIG. 6E). […] Finally in mice treated with DZ alone 62% were insensitive to the effects of this agent on EEG power.

## CN1C(=O)CN=C(c2ccccc2)c2cc(Cl)ccc21 [DZ, diazepam]
KA induced SE [1]
  total EEG power post DZ: 2.9±2.7×10^−6 μV^2
KA induced SE [2]; 30 min after injection, given 2h after KA, DZ 10 mg/kg, Compound A 50 mg/Kg IP
  total EEG power post-drug: 4.4±7.4×10^−7 μV^2
KA induced SE [2]; treatment 2h after KA
  mice insensitive to DZ effects on EEG power: 62%
